Drawing on US20170022171A1, “2,5-DISUBSTITUTED CYCLOPENTANECARBOXYLIC ACIDS AND THEIR USE” (Bayer Pharma Aktiengesellschaft, priority 2014, published 2017), this text covers IC50 for 22 compounds.

This assay deals with T1, human macrophage elastase (HME/hMMP-12) (Homo sapiens, UniProt P39900).
T1 construct: 0.5 nM HME; purchased R&D Systems 917-MP
Kind of assay: In vitro HME inhibition test (standard or high-sensitivity). Type of assay: biochemical. The following applies: in some cases mean values. The protocol: The potency of the compounds according to the invention with respect to HME (MMP-12) is determined in an in vitro inhibition test. The HME-mediated amidolytic cleavage of a suitable peptide substrate leads to an increase in fluorescent light therein. The signal intensity of the fluorescent light is directly proportional to the enzyme activity. The active concentration of a test compound at which half the enzyme is inhibited (50% signal intensity of the fluorescent light) is reported as the IC50 value.
In a 384 hole microtiter plate, in a total test volume of 41 the test buffer (0.1 M HEPES pH 7.4, 0.15 M NaCl, 0.03 M CaCl2, 0.004 mM ZnCl2, 0.02 M EDTA, 0.005% Brij®), the enzyme (0.5 nM HME; from R&D Systems, 917-MP, autocatalytic activation according to the manufacturer's instructions) and the intramolecularly quenched substrate [5 μM Mca-Pro-Leu-Gly-Leu-Glu-Glu-Ala-Dap(Dnp)-NH2; Bachem, M-2670] are incubated in the absence and presence of the test substance (as a solution in DMSO) at 37° C. for two hours. The fluorescence intensity of the test mixtures is measured (excitation […], emission 393 nm). The IC50 values are ascertained by plotting the fluorescent light intensity against the active ingredient concentration.
In this case, an enzyme concentration ten times lower is used (final concentration, for example, 0.05 nM) in order to achieve an elevated test sensitivity. The incubation period chosen for the test is correspondingly longer (for example 16 hours).

T1 sequence (P39900 106-470): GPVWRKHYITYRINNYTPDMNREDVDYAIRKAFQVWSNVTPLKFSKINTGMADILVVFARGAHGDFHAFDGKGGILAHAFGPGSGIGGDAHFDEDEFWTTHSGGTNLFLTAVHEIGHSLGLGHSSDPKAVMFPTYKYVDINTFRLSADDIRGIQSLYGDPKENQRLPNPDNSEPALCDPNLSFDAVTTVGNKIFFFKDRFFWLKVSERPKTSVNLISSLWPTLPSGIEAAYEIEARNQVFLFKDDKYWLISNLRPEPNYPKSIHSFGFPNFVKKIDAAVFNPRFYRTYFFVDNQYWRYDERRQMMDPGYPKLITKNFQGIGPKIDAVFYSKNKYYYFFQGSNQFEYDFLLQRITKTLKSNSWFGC

As for `O=C(O)[C@@H]1[C@@H](Cn2nnc3ccc(C(F)(F)F)cc3c2=O)CC[C@H]1C(=O)c1ccc(OCC2CCCCC2)cc1` (single isomer, unassigned) [Example 42, (−)-(1RS,2RS,5SR)-2-[4-(Cyclohexylmethoxy)benzoyl]-5-{[4-oxo-6-(trifluoromethyl)-1,2,3-benzotriazin-3(4H)-yl]methyl}cyclopentanecarboxylic acid], the IC50 turned out to be 39 nM. In other words, the double-digit nanomolar range.
The compound `Cc1ccc2nnn(C[C@@H]3CC[C@H](C(=O)c4ccc(OCCc5ccccc5)cc4)[C@H]3C(=O)O)c(=O)c2c1` (racemic) [Example 112, (+/−)-(1RS,2SR,5RS)-2-[(6-Methyl-4-oxo-1,2,3-benzotriazin-3(4H)-yl)methyl]-5-[4-(2-phenylethoxy)benzoyl]cyclopentanecarboxylic acid] gave an IC50 of 0.66 nM.
The same measure for `O=C(O)[C@@H]1[C@@H](Cn2nnc3ccc(C(F)(F)F)cc3c2=O)CC[C@H]1C(=O)c1ccc(OCc2ccc(F)cc2)cc1` (single isomer, unassigned) [Example 14, (−)-(1RS,2RS,5SR)-2-{4-[(4-Fluorobenzyl)oxy]benzoyl}-5-{[4-oxo-6-(trifluoromethyl)-1,2,3-benzotriazin-3(4H)-yl]methyl}cyclopentanecarboxylic acid]: 10 nM.
To `CCCOc1ccc(C(=O)[C@@H]2CC[C@H](Cn3nnc4ccc(C(F)(F)F)cc4c3=O)[C@H]2C(=O)O)cc1` (single isomer, unassigned) [Example 70, (+)-(1RS,2SR,5RS)-2-{[4-Oxo-6-(trifluoromethyl)-1,2,3-benzotriazin-3(4H)-yl]methyl}-5-(4-propoxybenzoyl)cyclopentanecarboxylic acid] belongs 0.031 nM; to `COC(=O)Nc1cccc(COc2ccc(C(=O)[C@H]3CC[C@@H](Cn4nnc5ccc(C(F)(F)F)cc5c4=O)[C@@H]3C(=O)O)cc2)c1` (stereo in doubt) [Example 30, (+/−)-(1RS,2RS,5SR)-2-{4-({3-[(Methoxycarbonyl)amino]benzyl}oxy)benzoyl}-5-{[4-oxo-6-(trifluoromethyl)-1,2,3-benzotriazin-3(4H)-yl]methyl}cyclopentanecarboxylic acid], 0.037 nM; to `Cc1cccc(COc2ccc(C(=O)[C@@H]3CC[C@H](Cn4nnc5ccc(C)cc5c4=O)[C@H]3C(=O)O)cc2)c1` (single isomer, unassigned) [Example 99, (−)-(1RS,2RS,5SR)-2-{4-[(3-Methylbenzyl)oxy]benzoyl}-5-[(6-methyl-4-oxo-1,2,3-benzotriazin-3(4H)-yl)methyl]cyclopentanecarboxylic acid], 210 nM.
For the compound “(−)-(1RS,2RS,5SR)-2-{4-[Cyclohexyl)methyl)sulphanyl]benzoyl}-5-{[4-oxo-6-(trifluoromethyl)-1,2,3-benzotriazin-3(4H)-yl]methyl}cyclopentanecarboxylic acid [Example 87]”, the IC50 was 8.3 nM. This IC50 lies about 25-fold lower than the previous one.
To `CCCCCCOc1ccc(C(=O)[C@@H]2CC[C@H](Cn3nnc4ccc(C)cc4c3=O)[C@H]2C(=O)O)cc1` (single isomer, unassigned) [Example 122, (−)-(1RS,2RS,5SR)-2-[4-(Hexyloxy)benzoyl]-5-[(6-methyl-4-oxo-1,2,3-benzotriazin-3(4H)-yl)methyl]cyclopentanecarboxylic acid] belongs 190 nM; to `O=C(O)[C@H]1[C@H](Cn2nnc3ccc(C(F)(F)F)cc3c2=O)CC[C@@H]1C(=O)c1ccc(OCc2ccc(Cl)c(Cl)c2)cc1` (racemic) [Example 27, (+/−)-(1RS,2RS,5SR)-2-{4-[(3,4-Dichlorobenzyl)oxy]benzoyl}-5-{[4-oxo-6-(trifluoromethyl)-1,2,3-benzotriazin-3(4H)-yl]methyl}cyclopentanecarboxylic acid], 0.032 nM.
`CCCCCCOc1ccc(C(=O)[C@H]2CC[C@@H](Cn3nnc4ccc(C(F)(F)F)cc4c3=O)[C@@H]2C(=O)O)cc1` (racemic) [Example 57, (+/−)-(1RS,2RS,5SR)-2-[4-(Hexyloxy)benzoyl]-5-{[4-oxo-6-(trifluoromethyl)-1,2,3-benzotriazin-3(4H)-yl]methyl}cyclopentanecarboxylic acid] returned an IC50 of 0.028 nM.
The compound `O=C(O)[C@@H]1[C@@H](Cn2nnc3ccc(C(F)(F)F)cc3c2=O)CC[C@H]1C(=O)c1ccc(OCCC2CCCCC2)cc1` (single isomer, unassigned) [Example 51, (−)-(1RS,2RS,5SR)-2-[4-(2-Cyclohexylethoxy)benzoyl]-5-{[4-oxo-6-(trifluoromethyl)-1,2,3-benzotriazin-3(4H)-yl]methyl}cyclopentanecarboxylic acid] gave a concentration for half-maximal inhibition (IC50) of 30 nM.
To `CCCOc1ccc(C(=O)[C@@H]2CC[C@H](Cn3nnc4ccc(C(F)(F)F)cc4c3=O)[C@H]2C(=O)O)cc1` (single isomer, unassigned) [Example 71, (−)-(1RS,2SR,5RS)-2-{[4-Oxo-6-(trifluoromethyl)-1,2,3-benzotriazin-3(4H)-yl]methyl}-5-(4-propoxybenzoyl)cyclopentanecarboxylic acid] belongs 2.7 nM.
For `O=C(O)[C@H]1[C@H](Cn2nnc3ccc(C(F)(F)F)cc3c2=O)CC[C@@H]1C(=O)c1ccc(SCc2ccccc2)cc1` (racemic) [Example 73, (+/−)-(1RS,2RS,5SR)-2-[4-(Benzylsulphanyl)benzoyl]-5-{[4-oxo-6-(trifluoromethyl)-1,2,3-benzotriazin-3(4H)-yl]methyl}cyclopentanecarboxylic acid], the IC50 was found to be 0.17 nM. Compared with the last compound, the IC50 is about 16-fold lower.
With `CCCCCOc1ccc(C(=O)[C@@H]2CC[C@H](Cn3nnc4ccc(C(F)(F)F)cc4c3=O)[C@H]2C(=O)O)cc1` (single isomer, unassigned) [Example 64, (+)-(1RS,2SR,5RS)-2-{[4-Oxo-6-(trifluoromethyl)-1,2,3-benzotriazin-3(4H)-yl]methyl}-5-[4-(pentyloxy)benzoyl]cyclopentanecarboxylic acid], the midpoint of inhibition, the IC50, lay at 0.068 nM. This IC50 lies about 2.5-fold lower than the previous one.
In the case of “(−)-(1RS,2SR,5RS)-2-{[4-Oxo-6-(trifluoromethyl)-1,2,3-benzotriazin-3(4H)-yl]methyl}-5-{4-[(2-phenylethy)sulphanyl]benzoyl}cyclopentanecarboxylic acid [Example 84]”, half-maximal inhibition (IC50) was put at 33 nM.
Regarding `O=C(O)[C@@H]1[C@@H](Cn2nnc3ccc(C(F)(F)F)cc3c2=O)CC[C@H]1C(=O)c1ccc(SCc2ccccc2)cc1` (single isomer, unassigned) [Example 74, (−)-(1RS,2RS,5SR)-2-[4-(Benzylsulphanyl)benzoyl]-5-{[4-oxo-6-(trifluoromethyl)-1,2,3-benzotriazin-3(4H)-yl]methyl}cyclopentanecarboxylic acid], the IC50 is 160 nM.
In turn, “(−)-(1RS,2RS,5SR)-2-{4-[(3,4-Dichlorobenzyl)oxy]benzoyl}-5-{[4-oxo-6-(trifluoromethyl)-1,2,3-benzotriazin-3(4H)-yl]methyl}cyclopentanecarboxylic acid [Example 29]” yielded a half-maximal inhibitory concentration (IC50) of 4.1 nM.
In turn, `Cc1ccc2nnn(C[C@H]3CC[C@@H](C(=O)c4ccc(OCc5ccc(F)cc5)cc4)[C@@H]3C(=O)O)c(=O)c2c1` (single isomer, unassigned) [Example 96, (−)-(1RS,2RS,5SR)-2-{4-[(4-Fluorobenzyl)oxy]benzoyl}-5-[(6-methyl-4-oxo-1,2,3-benzotriazin-3(4H)-yl)methyl]cyclopentanecarboxylic acid] yielded an IC50 of 120 nM.
Take `Cc1ccc2nnn(C[C@H]3CC[C@@H](C(=O)c4ccc(OCc5cccc(OC(F)(F)F)c5)cc4)[C@@H]3C(=O)O)c(=O)c2c1` (single isomer, unassigned) [Example 111, (−)-(1RS,2SR,5RS)-2-[(6-Methyl-4-oxo-1,2,3-benzotriazin-3(4H)-yl)methyl]-5-(4-{[3-(trifluoromethoxy)benzyl]oxy}benzoyl)cyclopentanecarboxylic acid]: inhibition was half-maximal at 140 nM (IC50). The IC50 values of the last two compounds are within 1.5-fold of each other.
The compound `Cc1ccc2nnn(C[C@H]3CC[C@@H](C(=O)c4ccc(OCCc5ccccc5)cc4)[C@@H]3C(=O)O)c(=O)c2c1` (single isomer, unassigned) [Example 114, (−)-(1RS,2SR,5RS)-2-[(6-Methyl-4-oxo-1,2,3-benzotriazin-3(4H)-yl)methyl]-5-[4-(2-phenylethoxy)benzoyl]cyclopentanecarboxylic acid] came in with an IC50 of 110 nM.
The compound `CCCCCSc1ccc(C(=O)[C@@H]2CC[C@H](Cn3nnc4ccc(C(F)(F)F)cc4c3=O)[C@H]2C(=O)O)cc1` (single isomer, unassigned) [Example 90, (−)-(1RS,2SR,5RS)-2-{[4-Oxo-6-(trifluoromethyl)-1,2,3-benzotriazin-3(4H)-yl]methyl}-5-[4-(pentylsulphanyl)benzoyl]cyclopentanecarboxylic acid] showed an IC50 of 1.1 nM.
For the compound `O=C(O)[C@H]1[C@H](Cn2nnc3ccc(C(F)(F)F)cc3c2=O)CC[C@@H]1C(=O)c1ccc(OCCC2CCCC2)cc1` (racemic) [Example 53, (+/−)-(1RS,2RS,5SR)-2-[4-(2-Cyclopentylethoxy)benzoyl]-5-{[4-oxo-6-(trifluoromethyl)-1,2,3-benzotriazin-3(4H)-yl]methyl}cyclopentanecarboxylic acid], the IC50 was 0.027 nM.

As usually defined, the IC50 is the concentration needed to halve the response being measured. A lower IC50 goes with inhibition by little substance.
